Data taken from patent publication US20230272399A1, “INHIBITORS OF LINE1 AND USES THEREOF” (T-ONE THERAPEUTICS S.R.L., priority 2020, published 2023).
*1 amine or outer side, *2 acyl side, *3 side chain or, on linkers, in order; H or OH if unused. Where a SMILES comes first, the peptide text is derived from it. Bridges are numbered along the chain shown (N, C = ends). Roman numbers before positions name the chains, in order. [ ]: non-standard residue; d: D form. Actinocin(9to1) = Cc1c2oc3c(C)ccc(C(=O)[*:1])c3nc-2c(C(=O)[*:2])c(N)c1=O; NMeV = CN[C@H](C(=O)O)C(C)C; Sar = CNCC(=O)O

What was measured:
LINE1 RNAs [1] = test: Actinomycin D treatment of quiescent naïve CD4+ T-cells, LINE1 expression by qRT-PCR; format: cell-based, human; conditions: Actinomycin D 5 μg/mL, 16 h
Protocol: Quiescent naïve CD4^+ T-cells were treated for 16 h with Actinomycin D 5 μg/mL (Merck; cat. num. A9415) as reported in^68. TCR signaling pathway inhibition was performed using the following immunosuppressive drugs: Rapamycin (100 nM; Merck; cat. num. R8781) for mTORC1, Ciclosporin A (0,5 μg/mL; Merck; cat. num. C3662) for Calcineurin pathway, Dexamethasone (1 μM; Merck; cat. num. D4902) for NF-κB pathway. Quiescent naïve CD4^+ T-cells were pretreated for 2 hours with the overmentioned drugs, then stimulated with Dynabeads Human T-activator anti-CD3/anti-CD28 beads in Th1 medium, in the presence of the different inhibitors; T-cells were collected 2, 4, 8 h post activation. Otherwise, naïve CD4^+ T-cells activated and cultured in Th1 medium for 72 h were treated for 48 h with the drugs. Treated cells were controlled for their vitality and treatment efficacy was assessed.

LINE1 RNAs [2] = test: LINE1 RNA FISH in naïve CD4+ T-cells treated with 3TC retrotranscriptase inhibitor; format: cell-based, human; conditions: versus vehicle (DMSO)
Protocol: Briefly, antisense biotinylated riboprobes for LINE1, AluY and HERVK were in vitro transcribed using MAXIscript T7 transcription kit (Invitrogen) and Biotin RNA labeling mix (Roche). 50-100 ng of antisense biotinylated riboprobes per experiment were used. 3% paraformaldehyde (PFA) fixed T-cells were washed with 0.05% Triton-X-100 in PBS, permeabilized with 0.5% Triton-X-100 in PBS and maintained in 20% glycerol/PBS.
To quantify mean fluorescence intensity of RNA signal in 3D reconstructed nuclei, images were analyzed with NIS-Elements Software (by Nikon). In the “General Analysis” a mask on DAPI signals was generated to identify single nuclei, and then a “3D measurement” of RNA signals in every nucleus was performed. To measure the colocalization of RNA and histone mark signals was used ImageJ Software to control the Pearson Correlation through the command “Colocalization Threshold” for every nucleus.

mTORC1 = mTORC1 (Homo sapiens, UniProt P42345+P62942); test: LINE1 expression in memory CD4+ T-cells from blood of patients treated with mTORC1 inhibitors; conditions: memory CD4+ T-cells from blood of kidney transplanted patients treated with Everolimus, versus healthy individuals

Cc1c2oc3c(C)ccc(C(=O)N[C@@H]4C(=O)N[C@H](C(C)C)C(=O)N5CCC[C@H]5C(=O)N(C)CC(=O)N(C)[C@@H](C(C)C)C(=O)O[C@@H]4C)c3nc-2c(C(=O)N[C@@H]2C(=O)N[C@H](C(C)C)C(=O)N3CCC[C@H]3C(=O)N(C)CC(=O)N(C)[C@@H](C(C)C)C(=O)O[C@@H]2C)c(N)c1=O [actinomycin D, Actinomycin D] (I: T[dV]P[Sar][NMeV] / II: T[dV]P[Sar][NMeV]; ester I:1-I:C, II:1-II:C; linker I:N-II:N via Actinocin(9to1))
LINE1 RNAs levels (LINE1 RNAs [1]): moderately affect

Nc1ccn([C@@H]2CS[C@H](CO)O2)c(=O)n1 [3TC]
staining of LINE1 RNAs (RNA-FISH) (LINE1 RNAs [2]): completely unchanged

CO[C@H]1C[C@@H]2CC[C@@H](C)[C@@](O)(O2)C(=O)C(=O)N2CCCC[C@H]2C(=O)O[C@H]([C@H](C)C[C@@H]2CC[C@@H](OCCO)[C@H](OC)C2)CC(=O)[C@H](C)/C=C(\C)[C@@H](O)[C@@H](OC)C(=O)[C@H](C)C[C@H](C)/C=C/C=C/C=C/1C [Everolimus]
LINE1 RNAs expression (mTORC1): re-express LINE1 RNAs
